In brackets after ≈: the same amount, converted by molar mass.
Tests used:
[1] = Inhibition of Mycobacterium avium DHFR using 7, 8 dihydrofolate as substrate incubated for 1 hr by plate reader assay
[2] = Inhibition of Mycobacterium abscessus DHFR using 7, 8 dihydrofolate as substrate incubated for 1 hr by plate reader assay; parameters: species or system Mycobacteroides abscessus
Dihydrofolate reductase = target: T1, Dihydrofolate reductase (Homo sapiens, UniProt P00374); experiment: Inhibition of human DHFR using 7, 8 dihydrofolate as substrate incubated for 1 hr by plate reader assay; type: toxicity
T1 sequence (P00374 whole entry): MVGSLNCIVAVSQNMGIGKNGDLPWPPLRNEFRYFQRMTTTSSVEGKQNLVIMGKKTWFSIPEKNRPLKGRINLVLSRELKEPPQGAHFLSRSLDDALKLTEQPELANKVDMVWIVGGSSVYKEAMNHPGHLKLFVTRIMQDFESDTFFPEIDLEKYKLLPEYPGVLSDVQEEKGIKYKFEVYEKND

[3] = test system: Mycobacteroides abscessus; experiment: Antibacterial activity against Mycobacterium abscessus ATCC 19977 incubated for 2 days by resazurin microtiter assay; type: functional; conditions: ATCC 19977, 48 h, time 2 day
[4] = Solubility of compound in PBS at pH 7.4 incubated for 24 hrs by UPLC analysis; type: physicochemical; conditions: for solubility: buffer, pH 7.4, 24 h
[5] = Apparent permeability in MDCK-II cells incubated for 1 hr by LC-MS/MS method; type: ADME, cell-based, Canis lupus familiaris; conditions: dog
[6] = Metabolic stability in human liver microsomes assessed as intrinsic clearance at 0.5 uM measured upto 30 mins in presence of NADPH by UPLC-MS/MS analysis; type: ADME, Microsome; conditions: 0.5 h
[7] = Metabolic stability in mouse hepatocytes assessed as intrinsic clearance at 0.5 uM measured upto 120 mins in presence of NADPH by UPLC-MS/MS analysis; type: ADME, cell-based, Hepatocyte; conditions: 2 h
[8] = Metabolic stability in human hepatocytes assessed as intrinsic clearance at 0.5 uM measured upto 120 mins in presence of NADPH by UPLC-MS/MS analysis; type: ADME, cell-based, Hepatocyte; conditions: 2 h
[9] = Clearance in mouse; type: ADME, organism-based; conditions: in vivo
[10] = Volume of distribution in mouse; type: ADME, organism-based; conditions: in vivo
[11] = Half-life in mouse; type: ADME, organism-based; conditions: in vivo
HepG2 = experiment: Cytotoxicity against human HepG2 cells assessed as viable cells at 100 uM incubated for 72 hrs by resazurin dye based plate reader assay; type: toxicity, cell-based; conditions: hepg2, 72 h
[12] = AUClast in BALB/c mouse at 1 mg/kg, iv measured upto 24 hrs by UPLC/MS-MS analysis; type: ADME, organism-based; conditions: in vivo
[13] = AUCinfinity in BALB/c mouse at 1 mg/kg, iv measured upto 24 hrs by UPLC/MS-MS analysis; type: ADME, organism-based; conditions: in vivo
[14] = Extrapolated AUC in BALB/c mouse at 1 mg/kg, iv measured upto 24 hrs by UPLC/MS-MS analysis; type: ADME, organism-based; conditions: in vivo
[15] = Observed clearance in BALB/c mouse at 1 mg/kg, iv measured upto 24 hrs by UPLC/MS-MS analysis; type: ADME, organism-based; conditions: in vivo
[16] = Observed volume of distribution at steady state in BALB/c mouse at 1 mg/kg, iv measured upto 24 hrs by UPLC/MS-MS analysis; type: ADME, organism-based; conditions: in vivo
[17] = Half-life in BALB/c mouse at 1 mg/kg, iv measured upto 24 hrs by UPLC/MS-MS analysis; type: ADME, organism-based; conditions: in vivo
[18] = AUClast in BALB/c mouse at 3 mg/kg, po measured upto 24 hrs by UPLC/MS-MS analysis; type: ADME, organism-based; conditions: in vivo
[19] = Cmax in BALB/c mouse at 3 mg/kg, po measured upto 24 hrs by UPLC/MS-MS analysis; type: ADME, organism-based; conditions: in vivo
[20] = Tmax in BALB/c mouse at 3 mg/kg, po measured upto 24 hrs by UPLC/MS-MS analysis; type: ADME, organism-based; conditions: in vivo
[21] = Oral bioavailability in BALB/c mouse at 3 mg/kg measured upto 24 hrs by UPLC/MS-MS analysis; type: ADME, organism-based; conditions: in vivo
[22] = Unbound fraction in mouse plasma; type: ADME, cell-free
[23] = Lipophilicity, logP of compound; type: physicochemical; conditions: octanol/water

| Compound | IC50 [1] | IC50 [2] | IC50 (Dihydrofolate reductase) | MIC [3] | also measured |
| --- | --- | --- | --- | --- | --- |
| CCc1nc(N)nc(N)c1OCCCOc1ccccc1CCC(=O)O | 4.3 nM | 0.8 nM | 120 nM | 10.1 µg/mL (≈ 28 µM) | solubility [4]: 233 µM (≈ 84 µg/mL); Papp [5]: 3 ×10⁻⁶ cm/s; intrinsic clearance [6]: < 0.4 mL/min/g; CLH [7]: < 0.76 mL/min/g; intrinsic clearance [8]: < 0.66 mL/min/g; clearance [9]: 43.6 mL/min/kg; Vd [10]: 2.5 L/kg; half-life [11]: 39 min |
| Nc1nc(N)c(OCCCOc2ccccc2CCC(=O)O)c(-c2ccccc2)n1 | 7 nM | 17 nM | > 5000 nM | 0.3 µg/mL (≈ 0.734 µM) | solubility at 24 h ([4]; PBS, pH 7.4): 52 µM (≈ 21.2 µg/mL); Papp [5]: 5.4 ×10⁻⁶ cm/s; intrinsic clearance [6]: 0.43 mL/min/g; CLH [7]: 2.2 mL/min/g; intrinsic clearance [8]: < 0.66 mL/min/g |
| COc1ccccc1-c1nc(N)nc(N)c1OCCCOc1ccccc1CCC(=O)O | 210 nM | 210 nM | > 5000 nM |  |  |
| CCCc1nc(N)nc(N)c1OCCCOc1ccccc1CCC(=O)O | 3.8 nM | 0.86 nM | 7.2 nM |  |  |
| Nc1nc(N)c(OCCCOc2ccccc2CCC(=O)O)c(C2CCCCC2)n1 | 6.3 nM | 1.1 nM | 2100 nM | 0.1 µg/mL (≈ 0.241 µM) | solubility [4]: 43 µM (≈ 17.8 µg/mL); Papp [5]: 3.2 ×10⁻⁶ cm/s; intrinsic clearance [6]: 0.54 mL/min/g; CLH [7]: 2.2 mL/min/g; intrinsic clearance [8]: < 0.66 mL/min/g; Activity (HepG2): > 60%; AUClast [12]: 40507 ng·min/mL; AUC [13]: 42750 ng·min/mL; %AUCextra [14]: 5%; clearance [15]: 23 mL/min/kg; Vdss [16]: 0.9 L/kg; t1/2 [17]: 30 min; AUClast [18]: 49232 ng·min/mL; Cmax [19]: 279 ng/mL; Tmax [20]: 30 min; F [21]: 41%; Fu [22]: ~ 0.02; logP [23]: 3.6 |
| Nc1nc(N)c(OCCCOc2ccccc2CCC(=O)O)c(-c2ccccc2C(F)(F)F)n1 | 28 nM | 42 nM | > 5000 nM | 3.6 µg/mL (≈ 7.56 µM) |  |
| Nc1ncc(OCCCOc2ccccc2CCC(=O)O)c(N)n1 | 220 nM | 990 nM | 9700 nM |  |  |
| Nc1nc(N)c(OCCCOc2ccccc2CCC(=O)O)c(-c2ccncc2)n1 | 17 nM | 77 nM | > 5000 nM | 0.6 µg/mL (≈ 1.47 µM) |  |
| Nc1nc(N)c(OCCCOc2ccccc2CCC(=O)O)c(CCCCO)n1 | 5 nM | 4.9 nM | 460 nM | 0.1 µg/mL (≈ 0.247 µM) | solubility [4]: 227 µM (≈ 91.8 µg/mL); Papp [5]: 0.8 ×10⁻⁶ cm/s; intrinsic clearance [6]: < 0.4 mL/min/g; CLH [7]: < 0.76 mL/min/g; intrinsic clearance [8]: < 0.66 mL/min/g |
| CCCCCc1nc(N)nc(N)c1OCCCOc1ccccc1CCC(=O)O | 4.5 nM | 8.3 nM | 430 nM | 0.6 µg/mL (≈ 1.49 µM) |  |
| COc1cccc(-c2nc(N)nc(N)c2OCCCOc2ccccc2CCC(=O)O)c1 | 60 nM | 13 nM | > 5000 nM | 5.6 µg/mL (≈ 12.8 µM) |  |
| CCCOc1nc(N)nc(N)c1OCCCOc1ccccc1CCC(=O)O | > 5000 nM | > 5000 nM | > 5000 nM |  |  |
| NCCCc1nc(N)nc(N)c1OCCCOc1ccccc1CCC(=O)O | 240 nM | 45 nM | > 5000 nM | 12.9 µg/mL (≈ 33.1 µM) |  |
| COc1ccc(-c2nc(N)nc(N)c2OCCCOc2ccccc2CCC(=O)O)cc1 | 5.2 nM | 17 nM | 700 nM | 0.2 µg/mL (≈ 0.456 µM) | solubility [4]: 67 µM (≈ 29.4 µg/mL); Papp [5]: 4.1 ×10⁻⁶ cm/s; intrinsic clearance [6]: < 0.4 mL/min/g; CLH [7]: 0.59 mL/min/g; intrinsic clearance [8]: < 0.66 mL/min/g |
| COc1nc(N)nc(N)c1OCCCOc1ccccc1CCC(=O)O | > 5000 nM | > 5000 nM | > 5000 nM |  |  |
| Nc1nc(N)c(OCCCOc2ccccc2CCC(=O)O)c(-c2cccc(C(F)(F)F)c2)n1 | 1900 nM | 320 nM | > 5000 nM |  |  |
| NCC[C@H](O)C(=O)N[C@@H]1C[C@H](N)[C@@H](O[C@H]2O[C@H](CN)[C@@H](O)[C@H](O)[C@H]2O)[C@H](O)[C@H]1O[C@H]1O[C@H](CO)[C@@H](O)[C@H](N)[C@H]1O [AMIKACIN] |  |  |  | 1.7 µg/mL (≈ 2.9 µM) |  |
| Nc1nc(N)c(OCCCOc2ccccc2CCC(=O)O)c(C2CCNCC2)n1 | 63 nM | 30 nM | > 5000 nM | 6.2 µg/mL (≈ 14.9 µM) |  |
| CCCCOc1nc(N)nc(N)c1OCCCOc1ccccc1CCC(=O)O | > 5000 nM | > 5000 nM | > 5000 nM |  |  |

Source: ChEMBL document CHEMBL6092213, “Rational Exploration of 2,4-Diaminopyrimidines as DHFR Inhibitors Active against Mycobacterium abscessus and Mycobacterium avium, Two Emerging Human Pathogens” (J Med Chem, 2024)
